Results taken from ChEMBL document CHEMBL4689842, “EUbOPEN Chemogenomics Library wave 1” (2021).

Legend:
Assay type in all cases: toxicity, cell-based
[1] = tested on: HEK-293T; experiment: Incucyte cell viability with HEK293T; settings: human, 10 µM, compound concentration 10 uM
[2] = tested on: Fibroblast; experiment: Incucyte cell viability with human fibroblast; settings: 10 µM, compound concentration 10 uM
[3] = tested on: U2OS; experiment: Incucyte cell viability with U2OS; settings: human, 10 µM, compound concentration 10 uM
[4] = 0 h, replicate number 1, timepoint 0 hours
[5] = 0 h, replicate number 2, timepoint 0 hours
[6] = 6 h, replicate number 1, timepoint 6 hours
[7] = 12 h, replicate number 1, timepoint 12 hours
[8] = 12 h, replicate number 2, timepoint 12 hours
[9] = 18 h, replicate number 1, timepoint 18 hours
[10] = 24 h, replicate number 1, timepoint 24 hours
[11] = 24 h, replicate number 2, timepoint 24 hours
[12] = 18 h, replicate number 2, timepoint 18 hours
[13] = 6 h, replicate number 2, timepoint 6 hours

Measured: Growth Rate
Note: filed as whole numbers so only -1 and 0 and 1 occur.

Cc1ccc(-c2cnc([C@@]3(O)CC[C@H](C(=O)O)C(C)(C)C3)s2)cc1Nc1cccc(C(F)(F)F)n1 [MRL-SYKi-NC]
1: [1]; [5] | [1]; [7] | [1]; [9] | [1]; [10] | [3]; [8] | [3]; [12] | [3]; [11]
0: [1]; [4] | [1]; [6] | [1]; [8] | [1]; [11] | [2]; [5] | [2]; [6] | [2]; [7] | [2]; [9] | [2]; [10] | [3]; [4] | [3]; [6] | [3]; [7] | [3]; [9] | [3]; [10]

CC(C)(Sc1ccc(CCN(CCCCC2CCCCC2)C(=O)NC2CCCCC2)cc1)C(=O)O [GW7647]
0: [1]; [5] | [1]; [6] | [1]; [7] | [1]; [9] | [1]; [10] | [2]; [4] | [2]; [6] | [2]; [7] | [2]; [10] | [3]; [4]
1: [1]; [4] | [1]; [13] | [1]; [8] | [1]; [12] | [2]; [9] | [2]; [11] | [3]; [13] | [3]; [7] | [3]; [9] | [3]; [10]

CC(C)c1onc(-c2c(Cl)cccc2Cl)c1COc1ccc(/C=C/c2cccc(C(=O)O)c2)c(Cl)c1
0: [1]; [4] | [1]; [7] | [1]; [9] | [1]; [10] | [2]; [4] | [2]; [9] | [2]; [10] | [3]; [4]
1: [1]; [6] | [1]; [8] | [2]; [5] | [2]; [6] | [2]; [7] | [2]; [12] | [2]; [11] | [3]; [7] | [3]; [9] | [3]; [10]

CCC[C@H](Oc1cc(C)c(-n2cc(C(F)(F)F)cn2)c(C)c1)c1ccc(C(=O)NCCC(=O)O)cc1 [PF-06291874]
1: [1]; [4] | [2]; [6] | [2]; [10] | [3]; [7] | [3]; [12] | [3]; [10]
0: [1]; [5] | [1]; [6] | [1]; [7] | [1]; [9] | [1]; [10] | [2]; [4] | [2]; [7] | [2]; [9] | [3]; [13] | [3]; [9]

Cc1nc(NC(=O)N2CCC[C@H]2C(N)=O)sc1-c1ccnc(C(C)(C)C(F)(F)F)c1 [ALPELISIB]
0: [1]; [6] | [1]; [8] | [2]; [5] | [2]; [8] | [2]; [12] | [2]; [11] | [3]; [5] | [3]; [9] | [3]; [10]
1: [1]; [9] | [1]; [10] | [2]; [4] | [2]; [13] | [2]; [7] | [2]; [9] | [2]; [10] | [3]; [4] | [3]; [6] | [3]; [7] | [3]; [12] | [3]; [11]

O=C(NOCC1CC1)c1ccc(F)c(F)c1Nc1ccc(I)cc1Cl [CI-1040]
1: [1]; [5] | [2]; [13] | [2]; [7] | [2]; [9] | [2]; [10]
0: [1]; [4] | [1]; [13] | [1]; [7] | [1]; [9] | [1]; [10] | [2]; [4] | [3]; [4] | [3]; [6] | [3]; [7] | [3]; [9] | [3]; [10]

FC(F)(F)c1cccc(-c2noc(-c3cc(-c4ccccc4)c(C(F)(F)F)s3)n2)c1
0: [1]; [5] | [1]; [6] | [1]; [7] | [1]; [9] | [1]; [10] | [2]; [4] | [2]; [13] | [2]; [11] | [3]; [5] | [3]; [8] | [3]; [12]
1: [1]; [4] | [2]; [7] | [2]; [9] | [2]; [10] | [3]; [4] | [3]; [6] | [3]; [7] | [3]; [9] | [3]; [10]

Cc1cc([C@@H](C)Nc2cccc(-c3cc(C)c(C(=O)N[C@@H](C)C(=O)O)c(C)c3)c2)ccc1Cl
0: [1]; [5] | [1]; [6] | [1]; [7] | [1]; [9] | [1]; [10] | [2]; [4] | [2]; [13] | [2]; [8] | [2]; [10] | [3]; [4] | [3]; [13] | [3]; [9]
1: [1]; [4] | [2]; [6] | [2]; [7] | [2]; [9] | [3]; [5] | [3]; [7] | [3]; [12] | [3]; [10]

Cc1oncc1C(=O)Nc1ccc(C(F)(F)F)cc1 [LEFLUNOMIDE]
1: [1]; [4] | [1]; [13] | [1]; [7] | [1]; [9] | [1]; [11] | [2]; [6] | [2]; [7] | [2]; [9] | [2]; [10] | [3]; [13] | [3]; [7] | [3]; [9] | [3]; [10]
0: [1]; [5] | [1]; [6] | [1]; [12] | [1]; [10] | [2]; [4] | [2]; [13] | [2]; [8] | [2]; [12] | [2]; [11] | [3]; [5]

O=C(NS(=O)(=O)c1ccc(NCC2CCOCC2)c([N+](=O)[O-])c1)c1ccc(N2CCN(Cc3ccc(C(F)(F)F)cc3-c3ccc(Cl)cc3)CC2)cc1Oc1cnc2[nH]ccc2c1 [A-1210227]
1: [1]; [11] | [2]; [6] | [2]; [7] | [2]; [9] | [2]; [10] | [3]; [7] | [3]; [10]
0: [1]; [4] | [1]; [6] | [2]; [4] | [3]; [4] | [3]; [6] | [3]; [8] | [3]; [9] | [3]; [11]

CC(=O)N1CCC(c2ccc(C(=O)NC(=N)N)cc2C(F)(F)F)CC1 [BI 9627]
1: [1]; [13] | [1]; [7] | [1]; [9] | [1]; [10] | [2]; [5] | [2]; [6] | [2]; [9] | [3]; [6] | [3]; [7] | [3]; [9] | [3]; [10]
0: [1]; [4] | [2]; [4] | [2]; [13] | [2]; [7] | [2]; [12] | [2]; [10] | [3]; [5]

O=C(Nc1cccnn1)N1CC(C/C=C/c2cncc(Oc3ccc(C(F)(F)F)cn3)n2)C1
0: [1]; [4] | [1]; [6] | [2]; [4] | [3]; [4] | [3]; [6] | [3]; [12] | [3]; [11]
1: [1]; [5] | [1]; [8] | [1]; [10] | [2]; [8] | [2]; [12] | [2]; [10] | [3]; [5] | [3]; [7] | [3]; [9] | [3]; [10]
